The text below walks through data of patent publication US20100075979A1, “PYRIDINYLPIPERAZIN DERIVATIVES USEFUL AS MODULATORS OF DOPAMINE D3 RECEPTORS” (priority 2008, published 2010).

The target of this experiment is T1, human D3 dopamine receptor (Homo sapiens, UniProt P35462).
T1 construct: expressed in transfected cells; host or cells: HEK-293 EBNA cells (transient transfection; membrane preparation)
T1 sequence (P35462 whole entry): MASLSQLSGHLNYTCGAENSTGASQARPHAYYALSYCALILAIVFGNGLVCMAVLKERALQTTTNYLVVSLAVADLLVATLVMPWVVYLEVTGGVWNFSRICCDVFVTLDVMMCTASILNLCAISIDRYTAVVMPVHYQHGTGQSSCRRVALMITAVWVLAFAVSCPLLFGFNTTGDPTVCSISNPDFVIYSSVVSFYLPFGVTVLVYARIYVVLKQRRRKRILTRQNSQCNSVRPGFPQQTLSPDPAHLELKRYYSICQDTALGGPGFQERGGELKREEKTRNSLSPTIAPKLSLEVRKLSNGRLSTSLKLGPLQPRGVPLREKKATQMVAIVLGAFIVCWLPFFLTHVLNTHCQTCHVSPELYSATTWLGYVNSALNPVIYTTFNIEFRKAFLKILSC
The experiment can be described thus: Radioligand binding assay ([3H]-spiperone) on membranes of HEK-293 EBNA cells expressing human D3 receptor. To be noted: [3H]-spiperone approx. 0.5 nM, 1 h at RT, cloned human D3 in HEK-293 EBNA membranes; Ki by Cheng-Prusoff. As for the experimental part:
The ability of the compounds to bind to the D3 receptors was determined using radioligand binding to cloned receptors selectively expressed in HEK-293 EBNA cells.
HEK-293 EBNA cells were transiently transfected with expression plasmids encoding for the human D3 dopamine receptor. The cells were harvested 48 h post-transfection, washed three times with cold PBS and stored at −80° C. prior to use. The pellet was suspended in cold 50 mM
Tris-HCl buffer containing 10 mM EDTA (pH 7.4) and homogenized with a Polytron (Kinematica AG, Basel, Switzerland) for 20-30 sec at 12.000 rpm. After centrifugation at 48.000×g for 30 min at 4° C., the pellet was resuspended in cold 10 mM Tris-HCl buffer containing 0.1 mM EDTA (pH 7.4), homogenized, and centrifuged as above. This pellet was further resuspended in a smaller volume of ice cold 10 mM Tris-HCl buffer containing 0.1 mM EDTA (pH 7.4) and homogenized with a Polytron for 20-30 sec at 12.000 rpm. The protein content of this homogenate was determined with the Bio-Rad (Bradford) Protein Assay (Biorad Laboratories GmbH, München, Germany) according to the instructions of the manufacturer using gamma globulin as the standard.
This homogenate was stored at −80° C. in aliquots and thawed immediately prior to use.
Aliquots of membrane preparations were thawed at RT, resuspended in assay buffer (50 mM Tris-HCl, 120 mM NaCl, 5 mM MgCl2, 1 mM EDTA, 5 mM KCl, 1.5 mM CaCl2, pH=7.4), homogenized with a Polytron for 20-30 sec at 12.000 rpm and adjusted to a final concentration of approximately 7.5 μg protein/well.
The binding affinity (Ki) of the compounds was determined using radioligand binding. Membranes were incubated in a total volume of 200 μl with a fixed concentration of radioligand (final concentration approximately 0.5 nM [^3H]-spiperone) and ten concentrations of test compound in ranging between 10 μM-0.1 nM for 1 h at RT. At the end of the incubation, the reaction mixtures were filtered on to unifilter 96-well white microplates with bonded GF/C filters (Packard BioScience, Zurich, Switzerland; preincubated for 1 h in 0.1% polyethylenimine (PEI) in assay buffer) with a Filtermate 196 harvester (Packard BioScience) and washed 3 times with cold assay buffer. The nonspecific binding was determined with equally composed reaction mixtures in the presence of 10 μM unlabelled spiperone. Per well 45 μl of Microscint 40 (Perkin Elmer, Schwerzenbach, Switzerland) was added, plates for sealed, shaken for 20 min and counted for 3 min on a Topcount Microplate Scintillation Counter (Canberra Packard SA, Zürich, Switzerland) with quenching correction.
The CPM value for each duplicate of a concentration of competing compound was averaged (y1), then the % specific binding was calculated according to the equation (((y1−non-specific)/(total binding-non-specific))×100). Graphs were plotted with the % specific binding using XLfit, a curve fitting program that iteratively plots the data using Levenburg Marquardt algorithm. The single site competition analysis equation used was y=A+((B−A)/(1+((x/C)^D))), where y is the % specific binding, A is the minimum y, B is the maximum y, C is the IC50, x is the log10 of the concentration of the competing compound and D is the slope of the curve (the Hill Coefficient). From these curves the IC50 (inhibition concentration at which 50% specific binding of the radioligand was displaced) and Hill coefficient were determined. The affinity constant (Ki) was calculated using the Cheng-Prusoff equation Ki=(IC50/1+([L]/Kd), where [L] is the concentration of radioligand and Kd is the dissociation constant of the radioligand at the receptor as determined by the saturation isotherm.
For orientation: Ki means the equilibrium dissociation constant of an inhibitor or competing ligand from its target. For `CC(=O)N[C@H]1CC[C@H](CCN2CCN(c3ncc(C(F)(F)F)cc3Cl)CC2)CC1` [Example 1, N-(trans-4-{2-[4-(3-Chloro-5-trifluoromethyl-pyridin-2-yl)-piperazin-1-yl]-ethyl}-cyclohexyl)-acetamide], the inhibition constant Ki is 9.64 nM.
The result for `COCCC(=O)N[C@H]1CC[C@H](CCN2CCN(c3ncc(C(F)(F)F)cc3Cl)CC2)CC1` [Example 2, N-(trans-4-{2-[4-(3-Chloro-5-trifluoromethyl-pyridin-2-yl)-piperazin-1-yl]-ethyl}-cyclohexyl)-3-methoxy-propionamide] reads 5.66 nM; that for `CCC(=O)N[C@H]1CC[C@H](CCN2CCN(c3ncc(C(F)(F)F)cc3Cl)CC2)CC1` [Example 3, N-(trans-4-{2-[4-(3-Chloro-5-trifluoromethyl-pyridin-2-yl)-piperazin-1-yl]-ethyl}-cyclohexyl)-propionamide], 16.8 nM.
Take `O=C(CC1CC1)N[C@H]1CC[C@H](CCN2CCN(c3ncc(C(F)(F)F)cc3Cl)CC2)CC1` [Example 4, N-(trans-4-{2-[4-(3-Chloro-5-trifluoromethyl-pyridin-2-yl)-piperazin-1-yl]-ethyl}-cyclohexyl)-2-cyclopropyl-acetamide]: the inhibition constant (Ki) was determined as 10.1 nM.
Regarding `CC(=O)N[C@H]1CC[C@H](CCN2CCN(c3ncccc3Cl)CC2)CC1` [Example 5, N-(trans-4-{2-[4-(3-Chloro-pyridin-2-yl)-piperazin-1-yl]-ethyl}-cyclohexyl)-acetamide], the Ki came out at 1.7 nM.
On to `CC(=O)N[C@H]1CC[C@H](CCN2CCN(c3ncc(Cl)cc3Cl)CC2)CC1` [Example 6, N-(trans-4-{2-[4-(3,5-Dichloro-pyridin-2-yl)-piperazin-1-yl]-ethyl}-cyclohexyl)-acetamide], for which the Ki was determined as 9.64 nM.
`CC(=O)N[C@H]1CC[C@H](CCN2CCN(c3ccc(C(F)(F)F)nc3)CC2)CC1` [Example 7, N-(trans-4-{2-[4-(6-Trifluoromethyl-pyridin-3-yl)-piperazin-1-yl]-ethyl}-cyclohexyl)-acetamide]: the Ki worked out at 5.66 nM.
With `NC(=O)CC(=O)N[C@H]1CC[C@H](CCN2CCN(c3ncc(C(F)(F)F)cc3Cl)CC2)CC1` [Example 8, N-(trans-4-{2-[4-(3-Chloro-5-trifluoromethyl-pyridin-2-yl)-piperazin-1-yl]-ethyl}-cyclohexyl)-malonamide] the figure was 16.8 nM; with `COc1cccnc1N1CCN(CC[C@H]2CC[C@H](NC(C)=O)CC2)CC1` [Example 9, N-(trans-4-{2-[4-(3-Methoxy-pyridin-2-yl)-piperazin-1-yl]-ethyl}-cyclohexyl)-acetamide], 10.1 nM; with `CC(=O)N[C@H]1CC[C@H](CCN2CCN(c3ccnc(Cl)c3Cl)CC2)CC1` [Example 10, N-(trans-4-{2-[4-(2,3-Dichloro-pyridin-4-yl)-piperazin-1-yl]-ethyl}-cyclohexyl)-acetamide], 1.7 nM.
